# Results as given in ChEMBL document CHEMBL1145657, “Chemistry of Acronycine I. Carbon- 13 NMR Studies of Acronycine and Related Compounds” (J Nat Prod, 1983).
# The source made the active and inactive calls. The rule behind the calls is not given here.
# Test system: KB
# Experiment: Cytotoxicity against human KB cells
# Format: functional, cell-based
row,SMILES,Activity
1,Cn1c2ccccc2c(=O)c2c(O)cc3c(c21)CCC(C)(C)O3,inactive
2,Cn1c2ccccc2c(=O)c2c(O)cc3c(c21)C=CC(C)(C)O3,inactive
